Legend:
[1] = system: SKM-1; assay: CellTiter-Glo (CTG) cell proliferation experiment; assay type: cell-based; conditions: Homo sapiens, TP53 mut, 72 hours, read-out: IC50 values, nM (Mean ± SD, n = 2 or 3)
[2] = system: human A375 cutaneous melanoma xenograft tumor; assay: Subcutaneous A375 cutaneous melanoma xenograft model; assay type: in vivo, BALB/c Nude mice
Excerpt: The subcutaneous xenograft tumor model of human tumor immuno-deficient mice is established by the cell inoculation method (reference can be made to Gould S E et al., Translational value of mouse models in oncology drug development, Nature medicine, 2015 21, 431-439, and Souers A J et al., ABT-199, a potent and selective BCL-2 inhibitor, achieves antitumor activity while sparing platelets, Nature medicine, 2012 19.202-208): tumor cells at logarithmic phase are collected, then are resuspended in 1×PBS after being counted, the concentration of the cell suspension is adjusted to 2.5-5×10^7/mL. Tumor cells are subcutaneously inoculated to right-side back of the immuno-deficient mice using a 1 mL syringe (4th needle) at 5-10×10^6/0.2 mL/mouse (experimental animals are purchased from Beijing Vital River Laboratory Animal Technology Co., Ltd. SCXK (Beijing) 2016-0006). All the experimental operations of animals strictly abide by the usage and management standard of experimental animals of GenePharma Co., Ltd. and Suzhou Yasheng Pharmaceutical Co., Ltd. The calculations of related parameters make reference to “Technical guidelines for non-clinical research of cytotoxic anti-tumor drugs” of China CFDA.
The tumor diameter is measured twice using a vernier caliper each week. The computational formula of the tumor volume (TV) is: TV=a×b^2/2. In the computational formula, a and b represent the length and width of the tumor measurement respectively. The computational formula of the relative tumor volume (RTV) is: RTV=VtN1. In the computational formula, V1 is the tumor volume when being grouped and administered, and Vt is the tumor volume when being measured at a certain day after the administration.
The evaluation index of the anti-tumor activity is the relative tumor proliferation rate T/C (%), and the computational formulae respectively are: the relative tumor proliferation rate T/C (%)=(TRTV/CRTV)×100%, TRTV is the RTV of the treatment groups, and CRTV is the RTV of the vehicle control groups. The tumor remission rate (%) is derived by dividing the number of SD (Stable Disease), PR (Partial response) and CR (Complete response) appearing in the tumor bearing mice after treatment by the total number of mice in the group×100%. […]

[3] = system: MOLM-13; assay: CellTiter-Glo (CTG) cell proliferation experiment; assay type: cell-based; conditions: Homo sapiens, TP53 wt, FLT3-ITD, 72 hours, read-out: IC50 values, nM (Mean ± SD, n = 2 or 3)

**Q.** CCN1[C@@H](C(=O)NC23CCC(C(=O)O)(CC2)CC3)[C@H](c2cccc(Cl)c2F)[C@]2(C(=O)Nc3cc(Cl)ccc32)C12CCCCC2 [Compound 2] was tested. Which IC50 [1] did it give?
**A.** 8950 ± 570 nM

**Q.** And the “T/C (%) @ D18” value ([2]; Compound 2 50 mg/kg PO QD × 7D, Trametinib 1 mg/kg, Dabrafenib 30 mg/kg PO QD × 21D)?
**A.** 58.25%

**Q.** What about the “RTV @ D18 (Mean ± SEM)” value ([2]; Compound 2 50 mg/kg PO QD × 7D, Trametinib 1 mg/kg, Dabrafenib 30 mg/kg PO QD × 21D, vehicle 17.36 ± 1.33) of the same compound?
**A.** 10.11 ± 1.83

**Q.** What about the “DCR (%)” value ([2]; disease control rate, CR, PR or SD by mRECIST) of the same compound?
**A.** 0%

**Q.** And the “ORR (%)” value ([2]; objective response rate, CR or PR by mRECIST)?
**A.** 0%

**Q.** And the IC50 [3]?
**A.** 26.8 ± 4.9 nM
